pIC50: −log10 of the molar value.

For 21 compounds, IC50 results are on record in patent US10329302B2, “Bicyclic-fused heteroaryl or aryl compounds” (Pfizer Inc., priority 2014, dated 2019).

Test [1] addresses human IRAK4 FL (Full Length) (Homo sapiens (Human), UniProt Q9NWZ3). As to the kind of experiment: IRAK4 Enzymatic DELFIA Assay, Protocol A. It counts as biochemical. The following applies: human IRAK4 FL, 0.6 mM ATP (KM); read-out: IRAK4 DELFIA Protocol A IC50.
Test [2] has as its system R848-induced TNFα production by human peripheral blood mononuclear cells (PBMCs). As to the kind of experiment: R848 Induced TNFα in Human PBMC Assay. It is filed as cell-based. As to conditions: Homo sapiens, PBMC, 3 h, read-out: R848-induced TNFa PBMC IC50 (nM).

Chain of human IRAK4 FL (Full Length) (Q9NWZ3 whole entry): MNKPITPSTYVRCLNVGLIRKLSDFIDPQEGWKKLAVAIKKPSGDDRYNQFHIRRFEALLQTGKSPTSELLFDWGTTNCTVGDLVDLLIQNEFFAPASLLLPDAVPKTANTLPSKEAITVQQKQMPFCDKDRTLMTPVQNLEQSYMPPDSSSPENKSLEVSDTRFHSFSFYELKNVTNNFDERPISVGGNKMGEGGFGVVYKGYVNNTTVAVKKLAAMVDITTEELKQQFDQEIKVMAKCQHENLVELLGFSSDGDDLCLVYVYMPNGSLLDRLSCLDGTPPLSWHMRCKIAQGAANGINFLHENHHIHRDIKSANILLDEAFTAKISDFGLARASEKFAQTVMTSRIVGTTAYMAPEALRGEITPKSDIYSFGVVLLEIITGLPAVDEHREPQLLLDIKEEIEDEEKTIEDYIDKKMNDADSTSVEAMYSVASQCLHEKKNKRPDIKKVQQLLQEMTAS

A word on the pIC50: it is −log10 of the IC50, conventionally taken in molar units. As a reminder, the IC50 is the concentration needed to halve the response being measured. Consider `COc1cc2c(OC[C@H]3NC(=O)[C@@H]4[C@@H](CF)[C@@H]43)ccnc2cc1C(N)=O` [Example 333, 4-{[(1R,2S,5S)-6-(fluoromethyl)-4-oxo-3-azabicyclo[3.1.0]hex-2-yl]methoxy}-6-methoxyquinoline-7-carboxamide], for which, in test [1], the pIC50 was 9.52. Also, the IC50 in test [2] came out at 182 nM.
For `COc1cc2c(OC[C@H]3NC(=O)[C@H]4[C@@H]3[C@]4(C)F)nccc2cc1C(N)=O` [Example 335, 1-{[(1S,2S,5R)-6-fluoro-6-methyl-4-oxo-3-azabicyclo[3.1.0]hex-2-yl]methoxy}-7-methoxyisoquinoline-6-carboxamide], in that order: 8.40 and 746 nM.
On to `COc1cc2c(OC[C@H]3NC(=O)[C@H]4[C@@H]3[C@@]4(C)F)nccc2cc1C(N)=O` [Example 336, 1-{[(1S,2S,5R)-6-fluoro-6-methyl-4-oxo-3-azabicyclo[3.1.0]hex-2-yl]methoxy}-7-methoxyisoquinoline-6-carboxamide], for which the pIC50 in test [1] was 9.52. The IC50 in test [2] is 674 nM.
Turning to `CC[C@@H]1[C@H](F)C(=O)N[C@@H]1COc1nccc2cc(C(N)=O)c(OCCOC)cc12` [Example 339, 1-{[(2S,3S,4S)-3-ethyl-4-fluoro-5-oxopyrrolidin-2-yl]methoxy}-7-(2-methoxyethoxy)isoquinoline-6-carboxamide], the pIC50 in test [1] was 7.05. Also, the IC50 in test [2] came to 269 nM.
In the case of `COC[C@@H]1CC(=O)N[C@@H]1COc1nccc2cc(C(N)=O)c(OC)cc12` [Example 340, 7-methoxy-1-{[(2S,3R)-3-(methoxymethyl)-5-oxopyrrolidin-2-yl]methoxy}isoquinoline-6-carboxamide], in test [1], the pIC50 is 7.92. In addition, the IC50 in test [2] turned out to be 456 nM.
`CC[C@@H]1[C@H](F)C(=O)N[C@@H]1COc1ncnc2cc(C(N)=O)c(OC)cc12` [Example 341, 4-{[(2S,3S,4S)-3-ethyl-4-fluoro-5-oxopyrrolidin-2-yl]methoxy}-6-methoxyquinazoline-7-carboxamide]: the pIC50 in test [1] is 9.52. Also, the IC50 in test [2] was 16 nM.
For `CC[C@@H]1[C@H](OC)C(=O)N[C@@H]1COc1nccc2cc(C(N)=O)c(OC)cc12` [Example 342, 1-{[(2S,3S,4S)-3-ethyl-4-methoxy-5-oxopyrrolidin-2-yl]methoxy}-7-methoxyisoquinoline-6-carboxamide], in that order: 6.00 and 2380 nM.
The like results for `CC[C@H]1[C@@H](COc2nccc3cc(C(N)=O)c(OC)cc23)NC(=O)[C@@H]1OC` [Example 343, 1-{[(2S,3S,4R)-3-ethyl-4-methoxy-5-oxopyrrolidin-2-yl]methoxy}-7-methoxyisoquinoline-6-carboxamide] were, in that order, 7.39 and 408 nM.
The like results for `CC[C@H]1[C@@H](COc2nccc3cc(C(N)=O)c(OC)cc23)NC(=O)C1(F)F` [Example 345, 1-{[(2S,3S)-3-ethyl-4,4-difluoro-5-oxopyrrolidin-2-yl]methoxy}-7-methoxyisoquinoline-6-carboxamide] were, in that order, 9.70 and 1.6 nM.
For the compound `COC[C@H]1[C@@H](COc2nccc3cc(C(N)=O)c(OC)cc23)NC(=O)C1(F)F` [Example 347, 1-{[(2S,3R)-4,4-difluoro-3-(methoxymethyl)-5-oxopyrrolidin-2-yl]methoxy}-7-methoxyisoquinoline-6-carboxamide], the pIC50 in test [1] was 9.22. In test [2], the IC50 was determined as 27 nM.
For `COC[C@@H]1[C@H](F)C(=O)N[C@@H]1COc1nccc2cc(C(N)=O)c(OC)cc12` [Example 348, 1-{[(2S,3R,4S)-4-fluoro-3-(methoxymethyl)-5-oxopyrrolidin-2-yl]methoxy}-7-methoxyisoquinoline-6-carboxamide], in that order: 9.15 and 42 nM.
The like results for `COc1cc2c(OC[C@H]3NC(=O)[C@@H](OC)[C@H]3C)nccc2cc1C(N)=O` [Example 349, 7-methoxy-1-{[(2S,3S,4S)-4-methoxy-3-methyl-5-oxopyrrolidin-2-yl]methoxy}isoquinoline-6-carboxamide] were, in that order, 5.53 and 9460 nM.
The like results for `COc1cc2c(OC[C@H]3NC(=O)[C@H](OC)[C@H]3C)nccc2cc1C(N)=O` [Example 350, 7-methoxy-1-{[(2S,3S,4R)-4-methoxy-3-methyl-5-oxopyrrolidin-2-yl]methoxy}isoquinoline-6-carboxamide] were, in that order, 7.24 and 568 nM.
Regarding `COC[C@H]1[C@@H](COc2nccc3cc(C(N)=O)c(OC)cc23)NC(=O)[C@@H]1F` [Example 351, 1-{[(2S,3R,4R)-4-fluoro-3-(methoxymethyl)-5-oxopyrrolidin-2-yl]methoxy}-7-methoxyisoquinoline-6-carboxamide], in test [1], the pIC50 was 8.20. The IC50 in test [2] came out at 213 nM.
For `CC[C@@H]1[C@H](O)C(=O)N[C@@H]1COc1nccc2cc(C(N)=O)c(OC)cc12` [Example 352, 1-{[(2S,3S,4S)-3-ethyl-4-hydroxy-5-oxopyrrolidin-2-yl]methoxy}-7-methoxyisoquinoline-6-carboxamide], in that order: 8.48 and 557 nM.
For `CC[C@H]1[C@@H](COc2nccc3cc(C(N)=O)c(OC)cc23)NC(=O)[C@@H]1O` [Example 353, 1-{[(2S,3S,4R)-3-ethyl-4-hydroxy-5-oxopyrrolidin-2-yl]methoxy}-7-methoxyisoquinoline-6-carboxamide], in that order: 9.30 and 20 nM.
For `COc1cc2c(OC[C@H]3NC(=O)C[C@H]3CCF)nccc2cc1C(N)=O` [Example 355, 1-{[(2S,3S)-3-(2-fluoroethyl)-5-oxopyrrolidin-2-yl]methoxy}-7-methoxyisoquinoline-6-carboxamide], in that order: 8.77 and 33 nM.
In the case of `CC[C@@H]1[C@H](N)C(=O)N[C@@H]1COc1nccc2cc(C(N)=O)c(OC)cc12` [Example 356, 1-{[(2S,3R,4S)-4-amino-3-ethyl-5-oxopyrrolidin-2-yl]methoxy}-7-methoxyisoquinoline-6-carboxamide], the pIC50 in test [1] was 6.94. In addition, the IC50 in test [2] was 594 nM.
For `CC[C@H]1[C@@H](COc2nccc3cc(C(N)=O)c(OC)cc23)NC(=O)[C@@H]1N` [Example 357, 1-{[(2S,3R,4R)-4-amino-3-ethyl-5-oxopyrrolidin-2-yl]methoxy}-7-methoxyisoquinoline-6-carboxamide], the pIC50 in test [1] was 7.52. The IC50 in test [2] turned out to be 588 nM.
For `CC[C@@H]1[C@H](F)C(=O)N[C@@H]1COc1nccc2cc(C(N)=O)c(OC(C)C)cc12` [Example 358, 1-{[(2S,3S,4S)-3-ethyl-4-fluoro-5-oxopyrrolidin-2-yl]methoxy}-7-(propan-2-yloxy)isoquinoline-6-carboxamide], in that order: 9.40 and 1.3 nM.
The like results for `CCOc1cc2c(OC[C@H]3NC(=O)[C@@H](F)[C@H]3CC)nccc2cc1C(N)=O` [Example 359, 7-ethoxy-1-{[(2S,3S,4S)-3-ethyl-4-fluoro-5-oxopyrrolidin-2-yl]methoxy}isoquinoline-6-carboxamide] were, in that order, 9.40 and 3.9 nM.
